Laboratory results reported in article PMC8201735 (BMC Pharmacology & Toxicology, 2021).
Values joined by “and” are separate entries in the source; they are usually repeats but may differ in a detail not shown here. Identical values can stand only once. Like-named read-outs stand apart in the source and are kept apart here.

Key:
[1] = Body weight; assay type: in vivo, human; conditions: for Change from baseline in body weight, Mean (SD): Day 2
Protocol: Body weight measurement was performed at screening and during inpatient Days- 1, 2, 4, 8, 13, and 14.

[2] = Plasma pharmacokinetics of remogliflozin etabonate and its metabolites during metformin treatment; assay type: in vivo, human; conditions: for AUC(0-t) / Cmax / Tmax: human, plasma, oral; for AUC(0-t): read-out: AUC (0-last), geometric mean (%CVb); for Cmax: read-out: Cmax, geometric mean (%CVb); for Tmax: read-out: tmax, median (range)
Protocol: (§1) PK analysis was conducted by […] (Chapel Hill, NC, USA), under the direction of Clinical Pharmacokinetics/Modelling and Simulation, GSK using the non-compartmental analysis Model 200 (for extra vascular administration) of WinNonlin Professional Edition version 4.1 (Pharsight Corporation, Mountain View, CA). […] Descriptive statistics were used to summarize baseline demographics, safety data, and pharmacokinetic parameters. Geometric mean and % CVb (between-subject coefficient of variation) were calculated for all pharmacokinetic parameters except tmax. Comparisons of placebo with each active dose of RE were assessed in terms of change from baseline in fasting plasma lactate acid using repeated measures analysis of covariance model. The model included terms for baseline measurement, visit, treatment and visit-by-treatment interaction. The same model was applied to change from baseline in weighted means of day-time, night-time and 0-24 h of blood pressures. Within group treatment comparison was performed using mixed model on log transformed Cmax and AUC (0-last).

[3] = test system: subjects with T2DM; test: Surveillance for lactic acidosis: fasting plasma lactic acid concentration; assay type: in vivo, human
Protocol: The samples for acidosis analysis were collected at screening (following an overnight fast and prior to morning dose), once during the run-in phase, at baseline (Day- 1), mornings (prior to first dose and breakfast) of Days 1, 2, 3, and 4 (inpatient) and Days 6, 8, and 10 (outpatient) and Days 13 and 14 (inpatient). Subjects were not allowed to do rigorous exercise or physical labor during the treatment phase of the study and instructed to limit exercise 12 h before sampling.
(§2) Descriptive statistics were used to summarize baseline demographics, safety data, and pharmacokinetic parameters. Geometric mean and % CVb (between-subject coefficient of variation) were calculated for all pharmacokinetic parameters except tmax. Comparisons of placebo with each active dose of RE were assessed in terms of change from baseline in fasting plasma lactate acid using repeated measures analysis of covariance model. The model included terms for baseline measurement, visit, treatment and visit-by-treatment interaction. The same model was applied to change from baseline in weighted means of day-time, night-time and 0–24 h of blood pressures. Within group treatment comparison was performed using mixed model on log transformed Cmax and AUC (0-last).

[4] = test system: subjects with T2DM; conditions: RE 500 mg BID and metformin 500 mg BID for 3 days; cited from earlier work
[5] = parameters: method as in PMID 25934577; conditions: repeat dosing PK; cited from earlier work
[6] = Plasma pharmacokinetics of metformin with and without RE; assay type: in vivo, human; conditions: RE 500 mg or 750 mg BID with metformin
Protocol: as §1

[7] = test system: subjects with T2DM; test: Ambulatory blood pressure monitoring; assay type: in vivo, human; conditions: for Decrease in diastolic blood pressure at nighttime, Day 13, compared to placebo (metformin alone) / Decrease in systolic blood pressure at nighttime, Day 13, compared to placebo (metformin alone): stated as magnitude of decrease
Protocol: The ambulatory blood pressure was monitored for […] during inpatient days (beginning Day 1 at 08.00, Day 2 at 08.00 and Day 13 at 08.00). The unit was programmed to take blood pressure readings every 10 min from 08.00 to 10.00, every 20 min from 10.00 to 22.00, and every 30 min from 22.00 to 08.00 the following morning.
as §2

[8] = test system: subjects with T2DM; test: Oral glucose tolerance test (75 g): weighted mean plasma glucose and insulin; assay type: in vivo, human
Protocol: Oral glucose tolerance testing was performed on Day 1 and Day 13 using a 75 g oral glucose solution. Blood samples for the measurement of insulin and glucose were taken immediately before drug dosing (within 5 min of drug dosing), and at 30 min, 1, 1.5, 2, 3, 4, and 6 h following drug dosing.

[9] = test system: T2DM patients; parameters: method as in PMID 32162274; conditions: T2DM patients on daily metformin therapy (> 1500 mg) over 24 weeks; cited from earlier work
[10] = test system: subjects with T2DM; test: Oral glucose tolerance test (75 g): weighted mean plasma glucose and insulin; assay type: in vivo, human; conditions: Day -1 (baseline)
[11] = 500 mg, Day 1, after RE 500 mg BID + metformin, N = 16
[12] = 500 mg, Day 13, after RE 500 mg BID + metformin, N = 15
[13] = 750 mg, Day 1, after RE 750 mg BID + metformin, N = 17
[14] = 750 mg, Day 13, after RE 750 mg BID + metformin, N = 16
[15] = Study Day 2, RE 750 mg BID + metformin
[16] = Study Day 6, RE 750 mg BID + metformin
[17] = 24 h, RE 500 mg BID + metformin, N = 14
[18] = 24 h, RE 750 mg BID + metformin, N = 14
[19] = Daytime (10 am to 8 pm), RE 500 mg BID + metformin
[20] = Daytime (10 am to 8 pm), RE 750 mg BID + metformin
[21] = Nighttime (midnight to 6 am), RE 500 mg BID + metformin
[22] = Nighttime (midnight to 6 am), RE 750 mg BID + metformin

CCOC(=O)OC[C@H]1O[C@@H](Oc2nn(C(C)C)c(C)c2Cc2ccc(OC(C)C)cc2)[C@H](O)[C@@H](O)[C@@H]1O [RE, remogliflozin etabonate]
Change from baseline in body weight, Mean (SD) ([1]; RE 500 mg + Metformin): −1.03 (0.994) kg
Change from baseline in body weight, Mean (SD) ([1]; RE 750 mg + Metformin): −1.04 (1.210) kg
Additional body weight lost in the RE groups compared to metformin alone ([1]; by Day 14, RE 500 or 750 mg BID + metformin vs placebo + metformin): ~1 kg
AUC(0-last) accumulation ratio Day 13 versus Day 1, point estimate (90% CI) ([2]; RE 500 mg + Metformin): 0.99 (0.857–1.15)
AUC(0-last) accumulation ratio Day 13 versus Day 1, point estimate (90% CI) ([2]; RE 750 mg + Metformin): 1.02 (0.861–1.21)
AUC(0-t) ([2]; 500 mg, Day 1, RE 500 mg BID + metformin, N = 16): 70.9 ng·h/mL
Cmax [2, 11]: 64.8 ng/mL
Tmax [2, 11]: 37.8 min
AUC(0-t) ([2]; 500 mg, Day 13, RE 500 mg BID + metformin, N = 15): 73.5 ng·h/mL
Cmax [2, 12]: 53.3 ng/mL
Tmax [2, 12]: 30 min
AUC(0-t) ([2]; 750 mg, Day 1, RE 750 mg BID + metformin, N = 17): 121 ng·h/mL
Cmax [2, 13]: 137 ng/mL
Tmax [2, 13]: 30 min
AUC(0-t) ([2]; 750 mg, Day 13, RE 750 mg BID + metformin, N = 16): 121 ng·h/mL
Cmax [2, 14]: 101 ng/mL
Tmax [2, 14]: 28.8 min
Fasting plasma lactic acid, maximum on-therapy absolute values, Mean (SD) ([3]; RE 500 mg BID + metformin): 1.220 (0.2684) mmol/L
Fasting plasma lactic acid, maximum on-therapy change from baseline, Mean (SD) ([3]; RE 500 mg BID + metformin): 0.234 (0.3717) mmol/L
Fasting plasma lactic acid, maximum on-therapy absolute values, Mean (SD) ([3]; RE 750 mg BID + metformin): 1.508 (0.4389) mmol/L
Fasting plasma lactic acid, maximum on-therapy change from baseline, Mean (SD) ([3]; RE 750 mg BID + metformin): 0.249 (0.5934) mmol/L
Fasting plasma lactic acid change from baseline, Mean (SD) ([3]; Study Day 2, RE 500 mg BID + metformin): −0.07 (0.248) mmol/L
Fasting plasma lactic acid change from baseline, Difference vs. placebo (95% CI), ANCOVA [3, 15]: −0.246(− 0.445, − 0.047) mmol/L
Fasting plasma lactic acid change from baseline, Mean (SD) [3, 15]: −0.17 (0.419) mmol/L
Fasting plasma lactic acid change from baseline, Difference vs. placebo (95% CI), ANCOVA ([3]; Study Day 6, RE 500 mg BID + metformin): −0.380 (− 0.603, − 0.157) mmol/L
Fasting plasma lactic acid change from baseline, Mean (SD) ([3]; Study Day 6, RE 500 mg BID + metformin, n = 15): −0.26 (0.310) mmol/L
Fasting plasma lactic acid change from baseline, Difference vs. placebo (95% CI), ANCOVA [3, 16]: −0.254(− 0.472, − 0.036) mmol/L
Fasting plasma lactic acid change from baseline, Mean (SD) [3, 16]: −0.26 (0.538) mmol/L
Fasting plasma lactic acid change from baseline, Difference vs. placebo (95% CI), ANCOVA ([3]; Study Day 13, RE 500 mg BID + metformin): −0.191 (− 0.414, 0.031) mmol/L
Fasting plasma lactic acid change from baseline, Mean (SD) ([3]; Study Day 13, RE 500 mg BID + metformin, n = 15): −0.15 (0.485) mmol/L
Fasting plasma lactic acid change from baseline, Difference vs. placebo (95% CI), ANCOVA ([3]; Study Day 13, RE 750 mg BID + metformin): −0.255 (− 0.475, − 0.034) mmol/L
Fasting plasma lactic acid change from baseline, Mean (SD) ([3]; Study Day 13, RE 750 mg BID + metformin, n = 16): −0.33 (0.398) mmol/L
Subjects with lactic acid greater than the upper limits of normal (ULN) at any time ([3]; receiving RE, not sustained, minimally above ULN): one
Effect of RE on the steady-state plasma profiles of metformin [4]: no effect
Tolerability of concomitant administration [4]: well tolerated
Increase in AUC on repeat dosing [5]: 10%
Increase in t1/2 on repeat dosing [5]: 10%
Effect of RE on the pharmacokinetics of metformin [6]: no effect
Ambulatory diastolic BP, adjusted mean change from baseline to Day 13 vs. placebo [7, 17]: −2.0; p = 0.256 mmHg
Ambulatory systolic BP, adjusted mean change from baseline to Day 13 vs. placebo [7, 17]: −2.8; p = 0.303 mmHg
Ambulatory diastolic BP, adjusted mean change from baseline to Day 13 vs. placebo [7, 18]: −3.3; p = 0.062 mmHg
Ambulatory systolic BP, adjusted mean change from baseline to Day 13 vs. placebo [7, 18]: −4.0; p = 0.131 mmHg
Ambulatory diastolic BP, adjusted mean change from baseline to Day 13 vs. placebo [7, 19]: −1.8; p = 0.461 mmHg
Ambulatory systolic BP, adjusted mean change from baseline to Day 13 vs. placebo [7, 19]: −3.4; p = 0.291 mmHg
Ambulatory diastolic BP, adjusted mean change from baseline to Day 13 vs. placebo [7, 20]: −1.3; p = 0.586 mmHg
Ambulatory systolic BP, adjusted mean change from baseline to Day 13 vs. placebo [7, 20]: −2.4; p = 0.441 mmHg
Ambulatory diastolic BP, adjusted mean change from baseline to Day 13 vs. placebo [7, 21]: −6.5; p = 0.006 mmHg
Ambulatory systolic BP, adjusted mean change from baseline to Day 13 vs. placebo [7, 21]: −8.4; p = 0.020 mmHg
Ambulatory diastolic BP, adjusted mean change from baseline to Day 13 vs. placebo [7, 22]: −4.8; p = 0.043 mmHg
Ambulatory systolic BP, adjusted mean change from baseline to Day 13 vs. placebo [7, 22]: −7.1; p = 0.047 mmHg
Decrease in diastolic blood pressure at nighttime, Day 13, compared to placebo (metformin alone) ([7]; RE 500 mg BID + metformin): 6.5 mmHg
Decrease in systolic blood pressure at nighttime, Day 13, compared to placebo (metformin alone) ([7]; RE 500 mg BID + metformin): 8.4 mmHg
Decrease in diastolic blood pressure at nighttime, Day 13, compared to placebo (metformin alone) ([7]; RE 750 mg BID + metformin): 4.8 mmHg
Decrease in systolic blood pressure at nighttime, Day 13, compared to placebo (metformin alone) ([7]; RE 750 mg BID + metformin): 7.1 mmHg
Weighted mean plasma glucose following OGTT, Mean (SD) ([8]; Day 1 (baseline), RE 500 mg + Metformin): 13 mmol/L and 13.03 (1.929) mmol/L
Weighted mean plasma glucose following OGTT, Mean (SD) ([8]; Day 1 (baseline), RE 750 mg + Metformin): 11 mmol/L and 11.49 (3.536) mmol/L
Weighted mean plasma glucose following OGTT, Mean (SD) ([8]; Day 13, RE 500 mg + Metformin): 9 mmol/L and 9.45 (1.502) mmol/L
Weighted mean plasma insulin following OGTT, Mean (SD) ([8]; Day 13, RE 500 mg + Metformin): 142.15 (67.626) pmol/L
Weighted mean plasma glucose following OGTT, Mean (SD) ([8]; Day 13, RE 750 mg + Metformin): 8 mmol/L and 8.84 (1.656) mmol/L
Weighted mean plasma insulin following OGTT, Mean (SD) ([8]; Day 13, RE 750 mg + Metformin): 171.57 (74.178) pmol/L
Weighted mean plasma glucose, change from baseline, Mean (SD) ([8]; RE 500 mg + Metformin): −3.50 (2.012) mmol/L
Weighted mean plasma insulin, change from baseline, Mean (SD) ([8]; RE 500 mg + Metformin): −44.80 (52.746) pmol/L
Weighted mean plasma glucose, change from baseline, Mean (SD) ([8]; RE 750 mg + Metformin): −2.77 (2.262) mmol/L
Weighted mean plasma insulin, change from baseline, Mean (SD) ([8]; RE 750 mg + Metformin): −18.95 (47.360) pmol/L
Glycemic efficacy [9]: comparable to dapagliflozin
Weighted mean plasma insulin following OGTT, Mean (SD) ([10]; RE 500 mg + Metformin): 190.96 (100.420) pmol/L
Weighted mean plasma insulin following OGTT, Mean (SD) ([10]; RE 750 mg + Metformin): 191.52 (83.045) pmol/L
